Assays:
Assay in all cases: Dundee kinase panel
Assay type in all cases: biochemical
Conditions in all cases: for remaining activity at 1 µM: read-out: residual activity
Aurora A = target: T1, Aurora A (Homo sapiens, UniProt O14965)
T1 construct: lines 1-140) and Reaction Biology
T1 sequence (O14965 1-403): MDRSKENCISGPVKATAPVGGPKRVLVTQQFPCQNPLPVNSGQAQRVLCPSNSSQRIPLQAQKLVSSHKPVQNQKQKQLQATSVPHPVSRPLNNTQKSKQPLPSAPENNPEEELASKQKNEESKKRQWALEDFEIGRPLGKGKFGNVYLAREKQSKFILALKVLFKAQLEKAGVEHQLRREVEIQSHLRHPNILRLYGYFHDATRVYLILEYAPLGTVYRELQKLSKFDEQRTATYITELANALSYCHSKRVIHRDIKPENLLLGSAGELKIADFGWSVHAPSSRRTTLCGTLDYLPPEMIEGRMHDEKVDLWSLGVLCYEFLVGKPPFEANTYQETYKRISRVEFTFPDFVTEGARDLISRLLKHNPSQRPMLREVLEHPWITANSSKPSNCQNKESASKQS
Description: (§1) Compounds were screened at 1 μM. For key hits, pIC50 values were then determined by HTRF as above. […] Stability in mouse and human liver microsomes was determined by Cyprotex.

BTK = target: T2, BTK (Homo sapiens, UniProt Q06187)
T2 construct: lines 1-140) and Reaction Biology
Description: as §1

CK1γ2 = target: T3, CK1γ2 (Homo sapiens, UniProt P78368)
T3 construct: lines 1-140) and Reaction Biology
Description: as §1

DDR2 = target: T4, DDR2 (Homo sapiens, UniProt Q16832)
T4 construct: lines 1-140) and Reaction Biology
T4 sequence (Q16832 22-855): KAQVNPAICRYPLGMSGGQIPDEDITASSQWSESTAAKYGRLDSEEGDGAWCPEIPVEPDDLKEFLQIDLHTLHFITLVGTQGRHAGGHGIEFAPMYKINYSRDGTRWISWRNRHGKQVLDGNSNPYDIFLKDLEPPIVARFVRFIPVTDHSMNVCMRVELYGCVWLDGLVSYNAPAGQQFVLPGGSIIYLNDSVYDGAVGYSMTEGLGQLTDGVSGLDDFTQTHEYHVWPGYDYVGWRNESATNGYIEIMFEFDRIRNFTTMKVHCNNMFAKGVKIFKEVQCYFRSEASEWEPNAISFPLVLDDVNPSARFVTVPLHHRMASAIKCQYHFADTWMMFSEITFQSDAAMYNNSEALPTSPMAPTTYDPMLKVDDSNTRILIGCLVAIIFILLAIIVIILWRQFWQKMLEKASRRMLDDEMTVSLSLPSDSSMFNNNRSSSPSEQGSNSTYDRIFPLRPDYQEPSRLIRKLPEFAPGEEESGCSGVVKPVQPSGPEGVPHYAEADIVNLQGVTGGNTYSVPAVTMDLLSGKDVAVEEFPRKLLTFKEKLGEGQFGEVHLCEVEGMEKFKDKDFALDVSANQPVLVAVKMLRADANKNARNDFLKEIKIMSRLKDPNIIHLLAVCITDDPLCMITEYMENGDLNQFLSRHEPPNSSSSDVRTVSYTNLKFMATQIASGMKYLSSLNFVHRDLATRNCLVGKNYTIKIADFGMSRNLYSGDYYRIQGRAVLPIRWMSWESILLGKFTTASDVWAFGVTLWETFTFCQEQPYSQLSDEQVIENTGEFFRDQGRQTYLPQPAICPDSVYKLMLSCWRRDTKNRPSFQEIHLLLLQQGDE
Description: as §1

ERK2 = target: T5, ERK2 (Homo sapiens, UniProt P28482)
T5 construct: lines 1-140) and Reaction Biology
Description: as §1

IR = target: T6, IR (Homo sapiens, UniProt P06213)
T6 construct: lines 1-140) and Reaction Biology
Description: as §1

MARK3 = target: T7, MARK3 (Homo sapiens, UniProt P27448)
T7 construct: lines 1-140) and Reaction Biology
Description: as §1

MLK1 = target: T8, MLK1 (Homo sapiens, UniProt P80192)
T8 construct: lines 1-140) and Reaction Biology
Description: as §1

PDGFRA = target: T9, PDGFRA (Homo sapiens, UniProt P16234)
T9 construct: lines 1-140) and Reaction Biology
Description: as §1

PKBa = target: T10, PKBa (Homo sapiens, UniProt P31749)
T10 construct: lines 1-140) and Reaction Biology
Description: as §1

p38a MAPK = target: T11, p38a MAPK (Homo sapiens, UniProt Q16539)
T11 construct: lines 1-140) and Reaction Biology
Description: as §1

p38g MAPK = target: T12, p38g MAPK (Homo sapiens, UniProt P53778)
T12 construct: lines 1-140) and Reaction Biology
T12 sequence (P53778 1-367): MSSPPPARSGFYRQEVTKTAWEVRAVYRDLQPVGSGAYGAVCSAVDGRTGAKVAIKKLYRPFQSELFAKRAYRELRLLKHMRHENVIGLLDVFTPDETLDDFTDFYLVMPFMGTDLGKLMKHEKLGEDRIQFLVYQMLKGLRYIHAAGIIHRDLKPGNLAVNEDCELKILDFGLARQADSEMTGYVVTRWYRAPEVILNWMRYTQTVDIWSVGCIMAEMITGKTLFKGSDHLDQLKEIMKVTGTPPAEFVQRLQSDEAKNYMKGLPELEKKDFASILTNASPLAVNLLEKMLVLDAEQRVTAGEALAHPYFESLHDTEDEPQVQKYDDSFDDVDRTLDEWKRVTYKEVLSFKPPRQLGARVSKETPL
Description: as §1

T10 sequence (P31749 whole entry): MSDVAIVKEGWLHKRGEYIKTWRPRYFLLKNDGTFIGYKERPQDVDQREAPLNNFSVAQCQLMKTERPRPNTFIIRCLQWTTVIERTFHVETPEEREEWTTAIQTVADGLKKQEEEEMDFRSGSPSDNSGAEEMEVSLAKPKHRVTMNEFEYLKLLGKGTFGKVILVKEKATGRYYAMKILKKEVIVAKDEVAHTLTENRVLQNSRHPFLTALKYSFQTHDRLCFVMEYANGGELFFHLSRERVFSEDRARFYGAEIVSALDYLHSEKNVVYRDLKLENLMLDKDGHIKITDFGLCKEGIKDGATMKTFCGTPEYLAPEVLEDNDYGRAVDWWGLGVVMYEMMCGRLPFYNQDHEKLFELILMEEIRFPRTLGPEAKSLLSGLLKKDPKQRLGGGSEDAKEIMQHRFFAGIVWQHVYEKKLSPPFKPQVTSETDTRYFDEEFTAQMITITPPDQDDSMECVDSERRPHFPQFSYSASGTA
T8 sequence (P80192 whole entry): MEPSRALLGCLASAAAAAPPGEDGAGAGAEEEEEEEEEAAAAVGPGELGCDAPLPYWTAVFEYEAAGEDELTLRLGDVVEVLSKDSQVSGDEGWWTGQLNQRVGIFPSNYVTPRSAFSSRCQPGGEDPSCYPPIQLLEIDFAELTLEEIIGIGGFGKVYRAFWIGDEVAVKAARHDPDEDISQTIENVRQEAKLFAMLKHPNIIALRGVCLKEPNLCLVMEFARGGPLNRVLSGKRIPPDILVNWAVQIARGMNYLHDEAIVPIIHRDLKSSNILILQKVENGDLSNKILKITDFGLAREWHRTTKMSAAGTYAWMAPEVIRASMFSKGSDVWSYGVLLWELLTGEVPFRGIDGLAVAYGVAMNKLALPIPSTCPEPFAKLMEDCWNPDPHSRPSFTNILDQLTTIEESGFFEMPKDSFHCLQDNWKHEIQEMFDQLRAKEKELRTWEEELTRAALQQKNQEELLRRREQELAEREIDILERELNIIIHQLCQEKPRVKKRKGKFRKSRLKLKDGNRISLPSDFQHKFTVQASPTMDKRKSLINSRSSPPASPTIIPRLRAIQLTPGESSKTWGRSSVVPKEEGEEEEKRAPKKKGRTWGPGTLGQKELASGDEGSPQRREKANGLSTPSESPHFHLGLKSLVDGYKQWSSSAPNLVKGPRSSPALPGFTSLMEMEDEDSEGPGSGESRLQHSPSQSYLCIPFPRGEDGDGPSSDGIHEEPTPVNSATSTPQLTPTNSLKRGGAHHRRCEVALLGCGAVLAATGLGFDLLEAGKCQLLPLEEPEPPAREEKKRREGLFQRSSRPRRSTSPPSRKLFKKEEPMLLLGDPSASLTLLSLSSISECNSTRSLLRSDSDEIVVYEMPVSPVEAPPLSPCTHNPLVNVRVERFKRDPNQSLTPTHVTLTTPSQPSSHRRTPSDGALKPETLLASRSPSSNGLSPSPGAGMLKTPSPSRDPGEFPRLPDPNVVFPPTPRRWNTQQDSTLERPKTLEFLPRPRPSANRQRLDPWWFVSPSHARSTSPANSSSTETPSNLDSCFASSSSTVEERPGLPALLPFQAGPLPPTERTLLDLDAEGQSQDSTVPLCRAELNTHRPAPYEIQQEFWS
T5 sequence (P28482 whole entry): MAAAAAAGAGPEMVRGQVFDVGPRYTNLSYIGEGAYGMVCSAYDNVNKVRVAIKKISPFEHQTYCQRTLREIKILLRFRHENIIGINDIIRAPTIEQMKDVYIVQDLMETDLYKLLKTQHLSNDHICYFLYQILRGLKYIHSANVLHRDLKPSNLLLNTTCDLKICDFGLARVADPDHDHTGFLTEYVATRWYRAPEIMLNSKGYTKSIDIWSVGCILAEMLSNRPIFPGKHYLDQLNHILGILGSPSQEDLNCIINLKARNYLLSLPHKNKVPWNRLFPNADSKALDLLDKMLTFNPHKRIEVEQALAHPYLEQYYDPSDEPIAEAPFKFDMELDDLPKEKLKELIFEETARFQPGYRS
T11 sequence (Q16539 whole entry): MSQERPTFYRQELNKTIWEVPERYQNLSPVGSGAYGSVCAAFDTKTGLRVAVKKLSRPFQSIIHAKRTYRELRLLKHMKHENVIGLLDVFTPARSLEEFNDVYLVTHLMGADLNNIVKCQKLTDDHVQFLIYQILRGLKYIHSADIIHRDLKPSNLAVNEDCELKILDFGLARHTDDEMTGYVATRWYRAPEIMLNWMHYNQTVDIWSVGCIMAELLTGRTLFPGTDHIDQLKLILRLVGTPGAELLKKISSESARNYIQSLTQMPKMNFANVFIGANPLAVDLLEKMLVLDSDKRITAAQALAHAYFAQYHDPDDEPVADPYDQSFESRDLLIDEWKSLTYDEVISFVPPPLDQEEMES
T7 sequence (P27448 whole entry): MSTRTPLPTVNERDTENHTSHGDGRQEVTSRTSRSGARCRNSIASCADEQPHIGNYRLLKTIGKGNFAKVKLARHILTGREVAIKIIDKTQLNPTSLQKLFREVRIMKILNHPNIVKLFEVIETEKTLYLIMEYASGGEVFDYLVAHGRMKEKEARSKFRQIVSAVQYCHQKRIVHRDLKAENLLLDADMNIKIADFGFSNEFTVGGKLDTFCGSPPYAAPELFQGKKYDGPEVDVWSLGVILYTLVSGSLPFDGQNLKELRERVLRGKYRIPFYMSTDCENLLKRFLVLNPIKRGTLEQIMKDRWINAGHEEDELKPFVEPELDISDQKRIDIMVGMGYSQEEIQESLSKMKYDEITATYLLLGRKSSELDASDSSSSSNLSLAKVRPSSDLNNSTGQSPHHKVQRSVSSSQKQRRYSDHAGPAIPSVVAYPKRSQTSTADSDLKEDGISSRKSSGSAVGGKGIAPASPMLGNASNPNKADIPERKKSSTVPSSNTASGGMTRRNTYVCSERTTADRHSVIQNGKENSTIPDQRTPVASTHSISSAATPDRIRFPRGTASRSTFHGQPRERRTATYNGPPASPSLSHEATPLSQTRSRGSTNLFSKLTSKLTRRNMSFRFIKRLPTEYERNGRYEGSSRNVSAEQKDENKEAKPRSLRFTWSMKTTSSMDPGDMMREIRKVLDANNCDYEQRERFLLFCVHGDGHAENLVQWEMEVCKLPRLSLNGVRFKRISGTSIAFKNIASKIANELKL
T3 sequence (P78368 whole entry): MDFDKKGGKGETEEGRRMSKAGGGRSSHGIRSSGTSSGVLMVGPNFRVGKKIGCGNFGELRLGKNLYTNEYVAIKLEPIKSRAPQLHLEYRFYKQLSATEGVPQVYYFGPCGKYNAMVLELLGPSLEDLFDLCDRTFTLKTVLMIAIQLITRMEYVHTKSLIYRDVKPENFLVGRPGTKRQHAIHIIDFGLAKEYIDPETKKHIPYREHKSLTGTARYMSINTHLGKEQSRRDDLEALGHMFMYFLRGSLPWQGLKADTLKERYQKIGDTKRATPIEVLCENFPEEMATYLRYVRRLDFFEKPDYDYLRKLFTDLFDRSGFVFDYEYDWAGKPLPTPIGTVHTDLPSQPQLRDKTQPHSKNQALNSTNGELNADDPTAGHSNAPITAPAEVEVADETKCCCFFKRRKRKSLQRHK
T2 sequence (Q06187 whole entry): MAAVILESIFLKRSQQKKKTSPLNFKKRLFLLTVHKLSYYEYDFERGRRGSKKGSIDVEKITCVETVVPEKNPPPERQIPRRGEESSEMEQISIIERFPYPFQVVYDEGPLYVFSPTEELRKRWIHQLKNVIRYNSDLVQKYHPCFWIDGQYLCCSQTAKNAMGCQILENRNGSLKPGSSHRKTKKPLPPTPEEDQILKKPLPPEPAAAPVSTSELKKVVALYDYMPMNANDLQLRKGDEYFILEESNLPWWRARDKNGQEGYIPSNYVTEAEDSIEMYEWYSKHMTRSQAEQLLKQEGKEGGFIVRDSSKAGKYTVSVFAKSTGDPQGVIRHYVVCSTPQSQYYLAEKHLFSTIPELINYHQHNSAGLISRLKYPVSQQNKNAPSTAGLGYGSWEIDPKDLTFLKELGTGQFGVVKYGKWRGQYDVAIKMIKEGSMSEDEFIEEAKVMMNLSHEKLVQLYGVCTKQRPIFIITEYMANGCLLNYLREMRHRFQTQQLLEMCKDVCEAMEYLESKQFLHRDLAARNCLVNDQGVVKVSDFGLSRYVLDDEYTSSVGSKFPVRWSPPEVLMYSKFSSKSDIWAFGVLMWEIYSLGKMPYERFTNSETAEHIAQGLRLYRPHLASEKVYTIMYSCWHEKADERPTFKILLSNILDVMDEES

| SMILES | remaining activity at 1 µM (Aurora A) | remaining activity at 1 µM (BTK) | remaining activity at 1 µM (CK1γ2) | remaining activity at 1 µM (DDR2) | remaining activity at 1 µM (ERK2) | remaining activity at 1 µM (IR) | remaining activity at 1 µM (MARK3) | remaining activity at 1 µM (MLK1) | remaining activity at 1 µM (PDGFRA) | remaining activity at 1 µM (PKBa) | remaining activity at 1 µM (p38a MAPK) | remaining activity at 1 µM (p38g MAPK) | also measured |
| --- | --- | --- | --- | --- | --- | --- | --- | --- | --- | --- | --- | --- | --- |
| O=C1Nc2ccc(I)cc2/C1=C/c1cc(Br)c(O)c(Br)c1 [GW5074] | 79% | 75% | 68% | 62% | 106% | 26% | 72% | 85% | 24% | 93% | 49% | 114% |  |
| Oc1ncnc2c1c(-c1ccccc1)cn2-c1ccccc1 [F1386-0303, 5,7-diphenyl-7H-pyrrolo[2,3-d]pyrimidin-4-ol] | 111% | 130% | 106% | 88% | 99% | 118% | 111% | 43% | 93% | 117% | 78% | 109% |  |
| O=C1Cc2c([nH]c3ccc(Br)cc23)-c2ccccc2N1 [Kenpaullone] | 96% | 64% | 81% | 88% | 124% | 43% | 62% | 99% | 48% | 95% | 94% | 100% |  |
| COCCOc1ccc(-c2cn(-c3ccccc3)c3nc[nH]c(=O)c23)cc1 [DMX-5804, 5-[4-(2-methoxy-ethoxy)-phenyl]-7-phenyl-3,7-dihydro-pyrrolo[2,3-d]pyrimidin-4-one] | 72% | 118% | 103% | 80% | 76% | 115% | 88% | 9% | 88% | 116% | 96% | 117% |  |
| Nc1ncc(C(=O)NC2CN(C(=O)C3CC3)C2)c2ccc(-c3cccc(F)c3)nc12 [GNE-495] |  |  |  |  |  |  |  |  |  |  |  |  | residual activity (Aurora A; 1 μM): 73%; residual activity (BTK; 1 μM): 82%; residual activity (CK1γ2; 1 μM): 107%; residual activity (DDR2; 1 μM): 109%; residual activity (ERK2; 1 μM): 104%; residual activity (IR; 1 μM): 107%; residual activity (MARK3; 1 μM): 46%; residual activity (MLK1; 1 μM): 25%; residual activity (PDGFRA; 1 μM): 97%; residual activity (PKBa; 1 μM): 105%; residual activity (p38a MAPK; 1 μM): 95%; residual activity (p38g MAPK; 1 μM): 93% |
